Experimental data: PMC10082216 (Nature Communications, 2023)
Like-named read-outs stand apart in the source and are kept apart here.

Test: TD-6450 phase I clinical study (SAD/MAD): pharmacokinetics
Format: in vivo, human
Conditions: human; for TD-6450 Concentration (ng/ml), Female subjects: in vivo; for TD-6450 Concentration (ng/ml), Female subjects / concentration at 1 h / concentration at 2 h / concentration at 3 h / concentration at 4 h / concentration at 6 h / concentration at 8 h / concentration at 12 h / concentration at 15 min / concentration at 24 h / concentration at 30 min / concentration at 48 h / concentration at 72 h / concentration at 96 h / concentration at 120 h / concentration at 144 h / concentration at 168 h: female; for concentration at 1 h / concentration at 2 h / concentration at 3 h / concentration at 4 h / concentration at 6 h / concentration at 8 h / concentration at 12 h / concentration at 15 min / concentration at 24 h / concentration at 30 min / concentration at 48 h / concentration at 72 h / concentration at 96 h / concentration at 120 h / concentration at 144 h / concentration at 168 h: Female subjects, read-out: Concentration
Procedure: Primary and secondary outcomes were pre-defined as follows: Safety and tolerability as a primary outcome, pharmacokinetics as a secondary outcome. Safety and tolerability were evaluated using standard measures, including adverse event (AE) monitoring, clinical laboratory tests (hematology, serum chemistry, coagulation, and urinalysis), vital signs, physical examinations, and 12-lead electrocardiograms (ECGs). […]
This study was conducted in two parts, Part A (SAD) and Part B (MAD). For the Part A, the age of enrolled subjects ranged from 20 to 60 years, with a mean age range of 32.1 to 46.2 years. Most subjects were male (73 total subjects) and most were white (55 subjects) or black (22 subjects). For Part B of the study, ages ranged from 23 to 60 years with a similar mean age across treatment groups. Most subjects were male (25 total subjects) and all were either white (18 subjects) or black (12 subjects). For each part of the study, the mean body mass index (BMI) and creatinine clearance were similar across treatment groups. […] Part A: Healthy subjects were sequentially enrolled and randomly assigned to each dose cohort (up to 10 dose-ascending cohorts were planned, including a fed arm in the food effect cohort) to receive either a single dose of TD-6450 or placebo. For each dose cohort, 8 subjects were randomized in a 3:1 ratio (6 subjects received TD-6450 and 2 subjects received placebo). The starting dose of TD-6450 was 0.5 mg with a planned maximum dose of 1000 mg. Upon review of the 500-mg cohort PK data, the decision was made to not escalate to the 1000-mg cohort because of exposure saturation at ≥ 500 mg. The following doses were administered: 0.5 mg, 1.5 mg, 5 mg, 15 mg, 30 mg, 60 mg, 120 mg, 240 mg, and 500 mg. Part B: Healthy subjects were sequentially enrolled in 3 ascending dose cohorts (TD-6450 60 mg, 120 mg, and 240 mg) and randomly assigned to receive either TD-6450 or placebo as once daily doses for 14 days. For each dose cohort, 10 subjects were randomized in a 4:1 ratio (8 subjects received TD-6450 and 2 subjects received placebo). Blinded safety, tolerability, and available PK data after each dose cohort were reviewed by the Safety Data Review Committee (SDRC) before escalation to the next dosing cohort for both part A and B. Subjects of the clinical study were randomly assigned to each cohort. Randomizations codes were assigned to the subjects. All study subjects, study investigators, and the sponsor’s staff involved in the conduct of the study were blinded to treatment assignment. The only personnel who had access to the randomization code before database lock were: The pharmacist or pharmacy staff member who prepared drug or placebo capsules for administration to the subject according to the randomization code and the bioanalytical contract laboratory that analyzed the PK samples (plasma and urine).

CNC(=O)N1C[C@@H](C)N(c2ccc(C(=O)Nc3ccc(-c4ccc(-c5c[nH]c([C@@H]6CCCN6C(=O)[C@@H](NC(=O)OC)C(C)C)n5)cc4)c(OC(F)(F)F)c3)cn2)C[C@@H]1C [TD-6450]
Cmax at 1 day (both sexes, plasma, oral, 120 mg, MAD 120 mg, day 1, read-out: Cmax Mean ± SD, D1): 216 ± 58 nM
Cmax at 14 day (both sexes, plasma, oral, 120 mg, MAD 120 mg, day 14, read-out: Cmax Mean ± SD, D14): 1010 ± 349 nM
half-life at 14 day (both sexes, plasma, oral, 120 mg, MAD 120 mg, day 14, read-out: t1/2 Mean ± SD, D14 (converted)): 66.4 ± 15 h
Cmax (both sexes, plasma, oral, 120 mg, SAD 120 mg, read-out: Cmax Mean ± SD): 174 ± 93.9 nM
half-life (both sexes, plasma, oral, 120 mg, SAD 120 mg, read-out: t1/2 Mean ± SD (converted)): 78.4 ± 13 h
Cmax (both sexes, plasma, oral, 240 mg, MAD 240 mg, day 1, read-out: Cmax Mean ± SD, D1): 459 ± 203 nM
Cmax (both sexes, plasma, oral, 240 mg, MAD 240 mg, day 14, read-out: Cmax Mean ± SD, D14): 1770 ± 218 nM
half-life (both sexes, plasma, oral, 240 mg, MAD 240 mg, day 14, read-out: t1/2 Mean ± SD, D14 (converted)): 59.8 ± 12 h
Cmax (both sexes, plasma, oral, 240 mg, SAD 240 mg, read-out: Cmax Mean ± SD): 278 ± 134 nM
half-life (both sexes, plasma, oral, 240 mg, SAD 240 mg, read-out: t1/2 Mean ± SD (converted)): 64.7 ± 7.7 h
Cmax (both sexes, plasma, oral, 500 mg, SAD 500 mg, read-out: Cmax Mean ± SD): 244 ± 114 nM
half-life (both sexes, plasma, oral, 500 mg, SAD 500 mg, read-out: t1/2 Mean ± SD (converted)): 54.9 ± 5.5 h
TD-6450 Concentration (ng/ml), Female subjects (4 h): 48.60 ng/mL
TD-6450 Concentration (ng/ml), Female subjects (6 h): 213.00 ng/mL
TD-6450 Concentration (ng/ml), Female subjects (8 h): 215.00 ng/mL
concentration at 1 h (plasma, oral, 0.5 mg, SAD arm NCT02022306, Dose 0.50, 1 Hour): 0 ng/mL
concentration at 2 h (plasma, oral, 0.5 mg, SAD arm NCT02022306, Dose 0.50, 2 Hours): 0 ng/mL
concentration at 3 h (plasma, oral, 0.5 mg, SAD arm NCT02022306, Dose 0.50, 3 Hours): 0.52 ng/mL
concentration at 4 h (plasma, oral, 0.5 mg, SAD arm NCT02022306, Dose 0.50, 4 Hours): 0.48 ng/mL
concentration at 6 h (plasma, oral, 0.5 mg, SAD arm NCT02022306, Dose 0.50, 6 Hours): 0.67 ng/mL
concentration at 8 h (plasma, oral, 0.5 mg, SAD arm NCT02022306, Dose 0.50, 8 Hours): 0.31 ng/mL
concentration at 12 h (plasma, oral, 0.5 mg, SAD arm NCT02022306, Dose 0.50, 12 Hours): 0 ng/mL
concentration at 15 min (plasma, oral, 0.5 mg, SAD arm NCT02022306, Dose 0.50, 15 Minutes): 0 ng/mL
concentration at 24 h (plasma, oral, 0.5 mg, SAD arm NCT02022306, Dose 0.50, 24 Hours): 0 ng/mL
concentration at 30 min (plasma, oral, 0.5 mg, SAD arm NCT02022306, Dose 0.50, 30 Minutes): 0 ng/mL
concentration at 48 h (plasma, oral, 0.5 mg, SAD arm NCT02022306, Dose 0.50, 48 Hours): 0.26 ng/mL
concentration at 72 h (plasma, oral, 0.5 mg, SAD arm NCT02022306, Dose 0.50, 72 Hours): 0.28 ng/mL
concentration at 96 h (plasma, oral, 0.5 mg, SAD arm NCT02022306, Dose 0.50, 96 Hours): 0 ng/mL
concentration at 120 h (plasma, oral, 0.5 mg, SAD arm NCT02022306, Dose 0.50, 120 Hours): 0 ng/mL
concentration at 144 h (plasma, oral, 0.5 mg, SAD arm NCT02022306, Dose 0.50, 144 Hours): 0 ng/mL
concentration at 168 h (plasma, oral, 0.5 mg, SAD arm NCT02022306, Dose 0.50, 168 Hours): 0 ng/mL
concentration at 1 h (plasma, oral, 5 mg, SAD arm NCT02022306, Dose 5.00, 1 Hour): 0.91 ng/mL
concentration at 2 h (plasma, oral, 5 mg, SAD arm NCT02022306, Dose 5.00, 2 Hours): 2.32 ng/mL
concentration at 3 h (plasma, oral, 5 mg, SAD arm NCT02022306, Dose 5.00, 3 Hours): 3.81 ng/mL
concentration at 4 h (plasma, oral, 5 mg, SAD arm NCT02022306, Dose 5.00, 4 Hours): 4.11 ng/mL
concentration at 6 h (plasma, oral, 5 mg, SAD arm NCT02022306, Dose 5.00, 6 Hours): 4.27 ng/mL
concentration at 8 h (plasma, oral, 5 mg, SAD arm NCT02022306, Dose 5.00, 8 Hours): 3.7 ng/mL
concentration at 12 h (plasma, oral, 5 mg, SAD arm NCT02022306, Dose 5.00, 12 Hours): 3.01 ng/mL
concentration at 15 min (plasma, oral, 5 mg, SAD arm NCT02022306, Dose 5.00, 15 Minutes): 0 ng/mL
concentration at 24 h (plasma, oral, 5 mg, SAD arm NCT02022306, Dose 5.00, 24 Hours): 2.55 ng/mL
concentration at 30 min (plasma, oral, 5 mg, SAD arm NCT02022306, Dose 5.00, 30 Minutes): 0 ng/mL
concentration at 48 h (plasma, oral, 5 mg, SAD arm NCT02022306, Dose 5.00, 48 Hours): 2.13 ng/mL
concentration at 72 h (plasma, oral, 5 mg, SAD arm NCT02022306, Dose 5.00, 72 Hours): 1.75 ng/mL
concentration at 96 h (plasma, oral, 5 mg, SAD arm NCT02022306, Dose 5.00, 96 Hours): 1.15 ng/mL
concentration at 144 h (plasma, oral, 5 mg, SAD arm NCT02022306, Dose 5.00, 144 Hours): 0.77 ng/mL
concentration at 168 h (plasma, oral, 5 mg, SAD arm NCT02022306, Dose 5.00, 168 Hours): 0.61 ng/mL
concentration at 1 h (plasma, oral, 15 mg, SAD arm NCT02022306, Dose 15.00, 1 Hour): 1.46 ng/mL
concentration at 2 h (plasma, oral, 15 mg, SAD arm NCT02022306, Dose 15.00, 2 Hours): 10.1 ng/mL
concentration at 3 h (plasma, oral, 15 mg, SAD arm NCT02022306, Dose 15.00, 3 Hours): 13.9 ng/mL
concentration at 4 h (plasma, oral, 15 mg, SAD arm NCT02022306, Dose 15.00, 4 Hours): 18 ng/mL
concentration at 6 h (plasma, oral, 15 mg, SAD arm NCT02022306, Dose 15.00, 6 Hours): 18.1 ng/mL
concentration at 8 h (plasma, oral, 15 mg, SAD arm NCT02022306, Dose 15.00, 8 Hours): 15.1 ng/mL
concentration at 12 h (plasma, oral, 15 mg, SAD arm NCT02022306, Dose 15.00, 12 Hours): 10.7 ng/mL
concentration at 15 min (plasma, oral, 15 mg, SAD arm NCT02022306, Dose 15.00, 15 Minutes): 0 ng/mL
concentration at 24 h (plasma, oral, 15 mg, SAD arm NCT02022306, Dose 15.00, 24 Hours): 9.09 ng/mL
concentration at 30 min (plasma, oral, 15 mg, SAD arm NCT02022306, Dose 15.00, 30 Minutes): 0 ng/mL
concentration at 48 h (plasma, oral, 15 mg, SAD arm NCT02022306, Dose 15.00, 48 Hours): 6.98 ng/mL
concentration at 72 h (plasma, oral, 15 mg, SAD arm NCT02022306, Dose 15.00, 72 Hours): 5.88 ng/mL
concentration at 96 h (plasma, oral, 15 mg, SAD arm NCT02022306, Dose 15.00, 96 Hours): 5.19 ng/mL
concentration at 120 h (plasma, oral, 15 mg, SAD arm NCT02022306, Dose 15.00, 120 Hours): 4.42 ng/mL
